According to patent EP2090164B1, “A rodenticide bait based on a synergetic association of anticoagulant active ingredients” (priority 2008, dated 2009):

What was measured:
cat = settings: active ingredient; cited from earlier work
[1] = WHO, 1995, cited from earlier work
infesting murine species = type: in vivo; settings: same amount of anticoagulant
[2] = cited from earlier work
dog = settings: active ingredient; cited from earlier work
mouse = settings: active ingredient; cited from earlier work
rat = settings: active ingredient; cited from earlier work
murine population = settings: in vivo; cited from earlier work
Mus musculus = settings: both genders and all ages of the Mus musculus; cited from earlier work
Rattus norvegicus = settings: young prepubertal; females of Rattus norvegicus; cited from earlier work
[3] = liver and kidney, two-phase course

Row | SMILES | a.p. LD50 (cat) [mg/kg] | elimination from both liver and kidney, rather rapid initial phase [1, 3] [days] | elimination from both liver and kidney, second, much slower, phase [1, 3] [days] | half-life in the pancreas ([1]; pancreas) [days] | disinfesting action with respect to that of brodifacoum (infesting murine species) | half-life in man [2] [days] | a.p. LD50 (dog) [mg/kg] | a.p. LD50 (mouse) [mg/kg] | a.p. LD50 (rat) [mg/kg] | eliminating of the treated murine population (murine population) | activity as chemosterilant (Mus musculus) | activity as chemosterilant (Rattus norvegicus)
1 | O=c1oc2ccccc2c(O)c1C1CC(c2ccc(-c3ccccc3)cc2)Cc2ccccc21 (stereo not drawn) [DIPHENACOUM, diphenacoum] | >100 | 3 | 118 to 120 | 182 | inferior | 11.5 | >50.0 | 0.8 | 1.8 |  |  | 
2 | OCC(O)CCl (stereo not drawn) [α-chlorohydrin] |  |  |  |  |  |  |  |  |  | up to 85% | not active | not active
3 | O=c1oc2ccccc2c(O)c1C(CC(O)c1ccc(-c2ccc(Br)cc2)cc1)c1ccccc1 (stereo not drawn) [BROMADIOLON, bromadiolon] | >25 |  |  |  | inferior |  | >10.0 | 1.75 | 1.125 |  |  | 
4 | O=c1oc2ccccc2c(O)c1C1CC(c2ccc(-c3ccc(Br)cc3)cc2)Cc2ccccc21 (stereo not drawn) [BRODIFACOUM, brodifacoum] | 25 |  |  |  |  |  | 0.25 to 3.6 | 0.4 | 0.4 |  |  | 
